Data on three substances can be found in patent publication US20090170762A1, “Treatment of Diabetes Related Obesity” (UUTech Limited, priority 2005, published 2009).

Ends that are not written are not given here. * marks the point of attachment. Palmitoyl = CCCCCCCCCCCCCCCC(=O)*

The target of data set [1] is DPP-IV (Homo sapiens, UniProt P27487). The experiment in a line: Degradation of GIP and Glu3-substituted GIP analogs by DPP-IV (HPLC). The format is in vitro ADME. To be noted: for half-life at 2 μm: DPP-IV enzyme (5 mU) in buffer, pH 7.8, incubation with DPP-IV, unit not given (time points in hrs), read-out: Estimated Half-Life (converted); for Intact Peptide Remaining (%) 0 hrs. / remaining at 2 h, 2 μm / remaining at 4 h, 2 μm / remaining at 8 h, 2 μm: incubation with DPP-IV (5 mU), 37°C; for Intact Peptide Remaining (%) 0 hrs.: pH 7.8, 0 hrs; for remaining at 2 h, 2 μm / remaining at 4 h, 2 μm / remaining at 8 h, 2 μm: isolated DPP-IV enzyme (5 mU); for remaining at 2 h, 2 μm: pH 7.8, 2 hrs, read-out: Intact Peptide Remaining (%) 2 hrs.; for remaining at 4 h, 2 μm: pH 7.8, 4 hrs, read-out: Intact Peptide Remaining (%) 4 hrs.; for remaining at 8 h, 2 μm: pH 7.8, 8 hrs, read-out: Intact Peptide Remaining (%) 8 hrs.
DPP-IV, sequence (P27487 whole entry, species assumed): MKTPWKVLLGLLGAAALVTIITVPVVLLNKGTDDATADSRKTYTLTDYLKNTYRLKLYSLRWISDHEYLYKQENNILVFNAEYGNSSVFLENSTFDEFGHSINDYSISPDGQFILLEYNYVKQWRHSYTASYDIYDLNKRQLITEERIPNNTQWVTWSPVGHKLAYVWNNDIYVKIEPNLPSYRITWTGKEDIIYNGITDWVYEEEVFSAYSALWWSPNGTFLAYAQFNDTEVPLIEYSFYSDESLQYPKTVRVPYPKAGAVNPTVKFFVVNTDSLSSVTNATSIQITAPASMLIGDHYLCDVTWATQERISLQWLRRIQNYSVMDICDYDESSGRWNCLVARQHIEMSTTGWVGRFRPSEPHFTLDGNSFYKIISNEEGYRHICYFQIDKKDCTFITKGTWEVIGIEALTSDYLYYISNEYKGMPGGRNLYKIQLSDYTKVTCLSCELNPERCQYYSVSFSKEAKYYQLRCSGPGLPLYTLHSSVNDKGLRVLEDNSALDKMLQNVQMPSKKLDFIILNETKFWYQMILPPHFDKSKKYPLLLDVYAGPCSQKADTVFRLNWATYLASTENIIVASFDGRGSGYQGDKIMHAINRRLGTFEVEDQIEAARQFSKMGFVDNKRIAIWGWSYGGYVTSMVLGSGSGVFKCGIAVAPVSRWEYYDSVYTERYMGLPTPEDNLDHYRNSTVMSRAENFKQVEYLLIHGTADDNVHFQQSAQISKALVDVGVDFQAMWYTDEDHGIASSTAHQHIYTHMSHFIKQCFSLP

Data set [2] has as its target T1, human GIP-R (Homo sapiens, UniProt P48546).
T1 construct: expressed in transfected cells; host or cells: Chinese Hamster Lung (CHL) fibroblast cells, stably transfected
T1 sequence (P48546 22-466): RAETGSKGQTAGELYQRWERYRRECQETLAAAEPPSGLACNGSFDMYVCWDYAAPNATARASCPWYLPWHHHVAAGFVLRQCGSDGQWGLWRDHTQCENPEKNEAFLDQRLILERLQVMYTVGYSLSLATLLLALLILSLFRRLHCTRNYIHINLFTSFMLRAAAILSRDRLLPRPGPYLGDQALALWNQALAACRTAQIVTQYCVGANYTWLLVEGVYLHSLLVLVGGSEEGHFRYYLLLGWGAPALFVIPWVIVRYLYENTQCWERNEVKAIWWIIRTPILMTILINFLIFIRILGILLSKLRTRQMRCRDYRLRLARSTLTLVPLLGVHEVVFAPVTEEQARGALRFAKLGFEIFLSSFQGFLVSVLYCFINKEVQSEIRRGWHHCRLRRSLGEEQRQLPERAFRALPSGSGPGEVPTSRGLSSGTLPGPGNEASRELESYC
The experiment in a line: Cyclic AMP production in GIP-R transfected CHL cells. The format is cell-based. To be noted: for inhibition of GIP-stimulated cAMP production: in presence of GIP (10^-7 m); for remaining activity at 0.1 µM: CHL, read-out: cAMP response in presence of 10^-7 M GIP (% GIP max). As for the experimental part:
Tissue Culture. […] (v/v) fetal bovine serum, 1% (v/v) antibiotics (100 U/ml penicillin, 0.1 mg/ml streptomycin) (all from Gibco, Paisley, Strathclyde, Scotland). BRIN-BD11 cells were cultured in RPMI-1640 tissue culture medium containing 10% (v/v) fetal bovine serum, 1% (v/v) antibiotics (100 U/ml penicillin, 0.1 mg/ml streptomycin) and 11.1 mm glucose. The origin and secretory characteristics of these cells have been described in detail previously (McClenaghan, N. H. et al., 1996, Diabetes 45:1132-1140). The cells were maintained in sterile tissue culture flasks (Corning Glass Works, Sunderland, UK) at 37° C. in an atmosphere of 5% CO2 and 95% air using a LEEC incubator (Laboratory Technical Engineering, Nottingham, UK).
Methods. […] The culture medium was removed and cells subsequently washed twice with 2 ml ice-cold HBS buffer (130 mm NaCl, 20 mm HEPES, 0.9 mm NaHPO4, 0.8 mm MgSO4, 5.4 mm KCl, 1.8 mm CaCl2, 5.6 mm glucose and 25 μm phenol red) (pH 7.4). […] The medium was subsequently removed and the cells lysed with […] of lysing solution (5% TCA, 3% SDS, 92% H2O, also containing 0.1 mm unlabelled cAMP and 0.1 mm unlabelled ATP) (Sigma, Poole, Dorset, UK). The plates were then left on a shaker at room temperature for 30 minutes and tritiated cAMP formation determined by column chromatography using Dowex and alumina ion exchange columns (BioRad Life Science Research, Alpha Analytical, Larne, UK) as previously described (Gault, V. A. et al 2002, Biochem. J. 367:913-920).
For orientation: Changes in cAMP serve as a functional read-out for many G protein-coupled receptors.

Data set [3] relates to BRIN-BD11 cells. Put plainly: Insulin secretion from BRIN-BD11 cells. The format is cell-based. To be noted: for Maximal insulin response (% GIP max) / Insulin response in presence of 10^-7 M GIP (% GIP max): BRIN-BD11 cells, 5.6 mm glucose; for Maximal insulin response (% GIP max): 20 min; for Insulin response in presence of 10^-7 M GIP (% GIP max): in presence of 10^-7 M native GIP; for effect on GIP-stimulated insulin secretion: in presence of GIP (10^-7 m). As for the experimental part:
Tissue Culture. Chinese Hamster Lung (CHL) fibroblast cells stably transfected with the human GIP-R were cultured in DMEM tissue culture medium containing 10%. (v/v) fetal bovine serum, 1% (v/v) antibiotics (100 U/ml penicillin, 0.1 mg/ml streptomycin) (all from Gibco, Paisley, Strathclyde, Scotland). BRIN-BD11 cells were cultured in RPMI-1640 tissue culture medium containing 10% (v/v) fetal bovine serum, 1% (v/v) antibiotics (100 U/ml penicillin, 0.1 mg/ml streptomycin) and 11.1 mm glucose. The origin and secretory characteristics of these cells have been described in detail previously (McClenaghan, N. H. et al., 1996, Diabetes 45:1132-1140). The cells were maintained in sterile tissue culture flasks (Corning Glass Works, Sunderland, UK) at 37° C. in an atmosphere of 5% CO2 and 95% air using a LEEC incubator (Laboratory Technical Engineering, Nottingham, UK).
Methods. Insulin release from BRIN-BD11 cells was determined by use of cell monolayers as described previously (Gault, V. A. et al. 2002, Biochem. J. 367:913-920). In brief, BRIN-BD11 cells were seeded into 24-well plates (Nunc, Roskilde, Denmark) at a density of 1.5×10^5 cells per well and allowed to attach overnight in RPMI-1640 culture medium at 37° C. Acute tests for insulin secretion were preceded by 40 minutes pre-incubation at 37° C. in 1.0 ml Krebs Ringer Bicarbonate Buffer (KRBB, 115 mm NaCl, 4.7 mm KCl, 1.28 mm CaCl2, 1.2 mM MgSO4, 1.2 mm KH2PO4, 25 mM HEPES and 10 mm NaHCO3; pH 7.4 with NaOH) supplemented with 0.1% (w/v) BSA and 1.1 mM glucose. […] After 20 minutes incubation, the buffer was removed and used for measurement of insulin by radioimmunoassay (Flatt, P. R. and Bailey, C. J., 1981, Diabetologia 5:573-577).

Data set [4] deals with ob/ob mice. Put plainly: 14 once-daily injections of GIP analogues in ob/ob mice. The format is in vivo, mouse. The note with it: 14 days daily, insulin 50 U/kg. The protocol: (§1) Animals. Obese diabetic (ob/ob) mice derived from the colony maintained at Aston University, UK (Bailey C. J. et al., 1982, Int. J. Obes. 6:11-21) were used at 14-18 weeks of age. Animals were age-matched, divided into groups and housed individually in an air-conditioned room at 22±2° C. with a 12 hour light: 12 hour dark cycle (08:00-20:00 hr). Drinking water and a standard rodent maintenance diet (Trouw Nutrition, Cheshire, UK) were freely available. All animal experiments were carried out in accordance with the UK Animals (Scientific Procedures) Act 1986.
Methods. […] Intraperitoneal glucose tolerance (18 mmol/kg body wt) and insulin sensitivity (50 U/kg body wt) tests were performed at the end of the study period. Blood samples taken from the cut tip of the tail vein of conscious mice at the times indicated in the Figures were immediately centrifuged using a Beckman microcentrifuge (Beckman Instruments, UK) for 30 seconds at 13,000×g. The resulting plasma was then aliquoted into fresh Eppendorf tubes and stored at −20° C. prior to glucose and insulin determinations.

In data set [5] the test system is ob/ob mice. The experiment in a line: Acute antihyperglycaemic and insulin releasing activity with glucose and native GIP in ob/ob mice. It is filed as in vivo, mouse. The note with it: 25 nmol/kg i.p. with GIP and glucose 18 mmol/kg, vs native GIP. The protocol: as §1
Biochemical analysis. Plasma glucose was assayed by an automated glucose oxidase procedure ([…]) using a Beckman Glucose Analyzer II (Beckman Instruments, Galway, Ireland). Plasma insulin was assayed by radioimmunoassay.
Methods. […] All test solutions were administered in a final volume of 5 ml/kg body weight. Blood samples were collected from the cut tip of the tail vein of conscious mice into chilled fluoride/heparin coated glucose microcentrifuge tubes (Sarstedt, Numbrecht, Germany) immediately prior to injection and at 15, 30 and 60 minutes post injection. Blood samples were immediately centrifuged using a Beckmnan microcentrifuge (Beckman Instruments, High Wycombe, Buckinghamshire, UK) for 30 seconds at 13,000×g. Plasma glucose was assayed using a Beckman Glucose Analyzer n (Beckman Instruments, High Wycombe, Buckinghamshire, UK) (Stevens, J. F., 1971, Clin. Chim. Acta 32:199-201) and plasma insulin was determined by RIA (Flatt, P. R. and Bailey, C. J., 1981, Diabetologia 5:573-577). All animal studies were carried out in accordance with the UK Animals (Scientific Procedures) Act 1986.

The half-life is the time needed for the level to fall by half in the phase considered. A word on the fraction remaining: it is what is left of the initial amount, in per cent. What is called EC50 is the midpoint of the concentration-response curve. The low end stands for a more potent agent, the high end for a less potent agent. Take “YAPGTFISDYSIAMDK(Palmitoyl)IHQQDFVNWLLAQKGKKNDWKHNITQ [(Pro^3)LysPAL^16GIP]”: in data set [1], the half-life at 2 μm is over 8 h; the “Intact Peptide Remaining (%) 0 hrs.” value amounted to 100%; the share remaining at 2 h, 2 μm was 100%; the fraction remaining at 4 h, 2 μm came to 100%. For the same substance, in data set [1], the share remaining at 8 h, 2 μm stood at 100%. Moreover, in data set [2], the EC50 turned out to be 870 nM and the “inhibition of GIP-stimulated cAMP production” value (“inhibition” for short) is on record as “similarly inhibited”. Moreover, in data set [2] (in presence of 10^-7 M native GIP), the “cAMP response in presence of 10^-7 M GIP (% GIP max)” value was found to be 63 ± 5 % GIP max. Further, in data set [3], the “Maximal insulin response (% GIP max)” value came to 48 ± 4 % GIP max and the “Insulin response in presence of 10^-7 M GIP (% GIP max)” value stood at 61 ± 3 % GIP max. In addition, the “hypoglycemic action of insulin” value in data set [4] is listed as “significantly augmented”.

For “YAWGTFISDYSIAMDKIHQQDFVNWLLAQKGKKNDWKHNITQ [(Trp^3)GIP]”, in data set [1], the half-life at 2 μm was 1.3 h; the “Intact Peptide Remaining (%) 0 hrs.” value is 100%; the fraction remaining at 2 h, 2 μm was found to be 22.5 ± 1.7%; the amount remaining at 4 h, 2 μm amounted to 4.7 ± 2.4%. In data set [1], the share remaining at 8 h, 2 μm came to 0%. Also, in data set [2], a half-maximal effect (EC50) was put at 3 nM, the remaining activity at 0.1 µM was determined as 78 ± 2% and the “inhibition” value is given as “did not significantly inhibit”. Besides, in data set [3], the “Maximal insulin response (% GIP max)” value amounted to 73 ± 2 % GIP max, the “Insulin response in presence of 10^-7 M GIP (% GIP max)” value turned out to be 100 ± 5 % GIP max and the “effect on GIP-stimulated insulin secretion” value was “did not significantly affect”. The “plasma glucose and insulin profiles when administered together with native GIP” value in data set [5] is “did not significantly alter”.

Regarding “YAYGTFISDYSIAMDKIHQQDFVNWLLAQKGKKNDWKHNITQ [(Tyr^3)GIP]”, in data set [1], the half-life at 2 μm was 1.5 h; the “Intact Peptide Remaining (%) 0 hrs.” value was found to be 100%; the share remaining at 2 h, 2 μm came to 34.1 ± 4.1%; the share remaining at 4 h, 2 μm stood at 6.3 ± 3.1%. Also, the amount remaining at 8 h, 2 μm in data set [1] is 0%. Besides, in data set [2], the response was half-maximal at 1.5 nM (EC50), the remaining activity at 0.1 µM came to 76 ± 4% and the “inhibition” value is “did not significantly inhibit”. In data set [3], the “Maximal insulin response (% GIP max)” value is 75 ± 4 % GIP max, the “Insulin response in presence of 10^-7 M GIP (% GIP max)” value is reported as 93 ± 2 % GIP max and the “effect on GIP-stimulated insulin secretion” value is “did not significantly affect”. Further, the “plasma glucose and insulin profiles when administered together with native GIP” value in data set [5] is reported as “significantly inhibited the action of GIP”.
